Measurements: US11026943B2, “Aminoquinoline derivatives and uses thereof” (UNIVERSITY OF DELHI, priority 2012, dated 2021)

Tests used:
[1] = target: Nurr1 LBD (Mus musculus, UniProt Q06219); assay: Fluorescence quenching assay, Nurr1-LBD; format: binding; settings: increasing amounts of AQ, 0.1 nM-1 μM
Protocol: Fluorescence spectra were measured using a SHIMADZU fluorescence spectrophotometer (model RF-5310PC, SHIMADZU). The proteins (15 ng/μl) were incubated with different concentrations of AQ or kanamycin (0.1 nM, 1 nM, 10 nM, 100 nM and 1 μM in PBS buffer, pH7.0). Protein quenching was monitored at 25° C. by using 5 nm of excitation and 5 nm of emission slit-width. The excitation wavelength was 280 nm, and the emission spectra were measured between 290 and 430 nm.

[2] = target: T1, Nurr1 interaction with SRC-1 and SRC-3 (Mus musculus, UniProt Q06219); assay: Co-immunoprecipitation of Nurr1 with SRC-1/SRC-3 in SK-N-BE(2)C cells; format: cell-based; settings: 30 μM AQ or 100 μM CQ for 16 hours
T1 construct: the C-terminal myc-tagged full-length Nurr1; His (from vector pCDNA3.1/myc-His) (C); expressed in transfected cells; host or cells: SK-N-BE(2)C human neuroblastoma cells

[3] = tested on: aphakia (ak/ak) mice; assay: Behavioral studies in ak/ak mice (Pole, Challenging Beam, Cylinder, Rotarod) and SN histology; format: in vivo, mouse
Protocol: Either 20 mg/kg of AQ (AQ group) or the saline (Saline group) was intraperitoneally injected (I.P.) twice per day for two weeks. 8 mg/kg of L-DOPA (L-DOPA group) in 0.5% DMSO was injected (I.P.) once per day for two weeks. The L-DOPA group was given 12.5 mg/kg benserazide 20 min prior to administration of L-DOPA.
Each ak mouse was randomly assigned into one of three experiment groups, (1) saline group (negative control; n=8), (2) L-DOPA group (positive control; n=8), (3) AQ group (n=10). Each WT or rdl mouse was randomly divided into two groups, (1) saline group (n=8) and (2) AQ group (n=10). Pole Test, Challenging Beam Traversal Test, and Cylinder Test were performed at two time points, immediately and one month after two weeks of either AQ or saline injection. Each mouse ran each task twice. Rota rod test was performed immediately after two weeks of either drug or saline injection. Acclimation and data recording process were identical to the rat study described above. All tasks were performed as described previously^11 and the short description of each task is as follows.
A vertical wooden pole 50 cm in length and 1 cm in diameter was used for Pole Test. Each mouse was gently placed head upwards on top of the pole which is placed on each animal's home cage. Each mouse ran tree trials per session during 2 training sessions. On the testing day, mice ran three trials. Two parameters (the meantime to orient downward and the total travel mean time) were used for the statistical analysis.
A 1 m length of plastic beam was used for Challenging Beam Traversal Test. The starting width of the beam was 3.5 cm and it gradually narrowed in 1 c increments to 0.5 cm at the other end site of the beam. Animals were trained to walk from the wide end to the other end for 2 sessions, three trials per session before testing. A mesh grid was removed during the training period. On the testing day, a mesh grid (1 cm square) covering the beam surface was equipped leaving a […] room between the grid and the beam surface. On the testing day, mice ran three trials. Two parameters (the mean number of steps taken by each animal and the mean time to traverse across three trials) were collected and used for statistical analysis.
A small transparent cylinder (height, 15.5 cm; diameter, 12.7 cm) was used to evaluate somatosensory motor function. Mice were placed in the cylinder and their rears were counted for 5 minutes. The forelimb touching the Plexiglas wall (a vertical movement) is defined as a full rear. The mean number of forelimb use was calculated for the statistical analysis. […]
The Rota rod equipment (Med-Associates, Inc, Albans, Vt., USA) was used to measure motor coordination. […] The mean latency to fall off from the Rota rod was measured for the statistical analysis. […]

[4] = tested on: primary cultures of rat mesencephalic DA neurons; assay: 6-OHDA-induced death in primary mesencephalic DA neurons (TH+ count, [3H]DA uptake); format: cell-based; settings: number of TH+ neurons and DA uptake; 20 μM 6-OHDA for 24 hr
Protocol: Control DA neurons were treated with the above medium in the presence of a dopamine uptake blocker, 10 μM mazindol (Sigma). Cells were then washed with ice-cold Krebs Ringers solution and lysed with 0.5 M NaOH. Radioactivity was quantified by a liquid scintillation counter (Beckman, Fullerton, Calif.).
To prepare primary cultures of DA neurons, the ventral mesencephalon was removed from 14 day gestation Sprague Dawley rat embryo (Charles River, Cambridge, Mass.). Tissues were incubated with 0.01% trypsin in MEM (MEM, Invitrogen) for 10 min at 37° C. and triturated using a constricted Pasteur pipette. DA neurons were plated at 1.0×10^5 cells per 9 mm diameter glass cover slip precoated with 100 μg/ml poly-D-lysine (Sigma, St. Louis, Mo.) and 4 μg/ml laminin (Invitrogen). DA neurons were maintained at 37° C. in a humidified 5% CO2 atmosphere in minimum essential medium supplemented with 10% FBS (Hyclone), 2 mM glutamine and 6.0 g/l glucose. […]
Cells were fixed in 4% paraformaldehyde (PFA) for 20 min, washed and then incubated with blocking buffer [PBS, 10% goat serum (Invitrogen), 0.3% Triton X-100 (Sigma)] for 1 hour. […] Following washes with PBS, appropriate fluorescence-tagged secondary antibodies (Jackson Immunoresearch Laboratories, West Grove, Pa.) were used for visualization. […]

[5] = target: T2, Nurr1 DBD (Mus musculus, UniProt Q06219); assay: GAL4 / GAL4-Nurr1 DBD reporter assay; format: cell-based
T2 construct: the yeast transcription factor GAL4's DBD is fused to either Nurr1 LBD or DBD; expressed in transfected cells; host or cells: SK-N-BE(2)C human neuroblastoma cells
T2 sequence (Q06219 260-335 limits assumed): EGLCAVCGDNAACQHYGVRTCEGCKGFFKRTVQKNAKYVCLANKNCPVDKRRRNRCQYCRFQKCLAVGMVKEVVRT

T1 sequence (Q06219 whole entry): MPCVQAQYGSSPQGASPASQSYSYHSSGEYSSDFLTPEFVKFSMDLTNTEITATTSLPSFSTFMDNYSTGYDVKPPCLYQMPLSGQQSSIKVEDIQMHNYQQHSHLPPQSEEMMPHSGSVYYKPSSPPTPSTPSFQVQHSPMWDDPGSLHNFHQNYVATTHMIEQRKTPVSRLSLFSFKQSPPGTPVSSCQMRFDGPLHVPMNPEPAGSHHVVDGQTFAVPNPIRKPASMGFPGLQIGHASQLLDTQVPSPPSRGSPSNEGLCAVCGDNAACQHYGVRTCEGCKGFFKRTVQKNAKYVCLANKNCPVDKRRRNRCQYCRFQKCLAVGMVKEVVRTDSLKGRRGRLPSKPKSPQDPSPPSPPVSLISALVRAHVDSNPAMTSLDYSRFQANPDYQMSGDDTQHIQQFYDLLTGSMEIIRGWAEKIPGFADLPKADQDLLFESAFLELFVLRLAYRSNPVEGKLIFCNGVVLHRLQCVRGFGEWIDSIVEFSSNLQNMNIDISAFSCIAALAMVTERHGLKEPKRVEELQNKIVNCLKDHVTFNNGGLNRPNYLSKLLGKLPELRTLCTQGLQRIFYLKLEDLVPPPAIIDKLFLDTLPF
Nurr1 LBD, sequence (Q06219 328-598): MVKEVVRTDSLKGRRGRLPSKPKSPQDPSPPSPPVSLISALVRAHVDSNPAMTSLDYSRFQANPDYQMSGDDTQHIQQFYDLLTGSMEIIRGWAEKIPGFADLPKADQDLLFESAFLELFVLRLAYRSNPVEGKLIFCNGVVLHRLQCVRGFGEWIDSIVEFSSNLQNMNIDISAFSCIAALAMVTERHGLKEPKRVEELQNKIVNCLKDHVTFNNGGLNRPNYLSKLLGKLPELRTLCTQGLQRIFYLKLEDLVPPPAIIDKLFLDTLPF

## CCN(CC)Cc1cc(Nc2ccnc3cc(Cl)ccc23)ccc1O [AQ, amodiaquine]
[1]
  fluorescence quenching of Nurr1-LBD: fluorescence intensity gradually decreased
[2]
  Nurr1 interactions with SRC-1 and SRC-3: significantly enhanced
[3]; 2 weeks of AQ 20 mg/kg i.p. twice per day
  motor deficits in Pole, Challenging Beam, Cylinder and Rotarod tests: significantly improved
[3]; after AQ for 2 weeks
  activated microglia (CD11b) in the SN: reduced to the level of wild type mice
[3]; data not shown
  number of TH+ neurons in ak/ak mice: not detectably altered
[4]
  6-OHDA-induced death in primary DA neurons: significantly inhibit
[5]
  response with GAL4 or GAL4-Nurr1 DBD: no response
